Measurements: patent publication US8388982B2, “Photo-induced damage mitigating agents and preparation and methods of use thereof” (priority 2008, dated 2013)

Legend:
[1] = Fluorescence correlation spectroscopy (FCS) triplet-state quenching; conditions: Alexa568 in low oxygen
Method: Fluorescence correlation spectroscopy (FCS) is a commonly used technique for experimentally characterizing the dynamics of fluorescent species that was initially introduced in the early 1970's (Magde, D., et al, (1972) Phys. Rev. Lett. 29: 705-708). In FCS, light is focused on a sample in a very small detection volume, and the measured fluorescence intensity fluctuations (due to diffusion, physical or chemical reactions, aggregation, etc.) are analyzed using the temporal autocorrelation. Further details are provided, e.g., in Ehrenberg, M. et al. (1974) Chem Phys 4: 390-401; Elson, E. L., et al. (1974) Biopolymers 13: 1-27; Magde, D., et al. (1974) Biopolymers 13: 29-61; Thompson, N. L. (1991) Topics in Fluorescence Spectroscopy Techniques, Vol. 1, ed. J. R. Lakowicz (New York: Plenum) pp. 337-378; Hess, et al. (2002) Biochemistry 41: 697; and Krichevsky, O., et al. (2002) Rep. Prog. Phys. 65: 251-297.
FCS experiments using the fluorophore Alexa568 in low oxygen were used to monitor the amount of the dye triplet state upon excitation over time as a measure of triplet-state quenching by 6-hydroxy-2,5,7,8-tetramethylchroman-2-carboxylic acid and derivatives thereof. Briefly, these experiments were performed on a confocal microscope setup (Olympus IX71 with water-immersion objective UPlanSApo, 60×) using a single line laser excitation (532 nm) at 0.4-mW intensity and two single photon avalanche detectors (SPAD detectors; Perkin Elmer, Waltham, Mass.). The FCS measurements were done in a reaction buffer containing 50 mM ACES, pH 7.1; 75 mM potassium acetate; and 5 mM DTT. A protocatechuic acid/protocatechuate-3,4-dioxygenase (PCA/PCD) oxygen scavenging system (see, e.g., Aitken, et al. (2007) “An Oxygen Scavenging System for Improvement of Dye Stability in Single-Molecule Fluorescence Experiments,” Biophys J. 94:1826-1835) was included, as well. Correlation curves were generated and recorded by a FLEX digital photon correlator (Correlator.com; Bridgewater, N.J.), and analyzed using Origin8.0 (OriginLabs; Northampton, Mass.).
In these experiments, the photo-induced damage mitigating ability of the preparation of photomodified 6-hydroxy-2,5,7,8-tetramethylchroman-2-carboxylic acid (described above), an aged 6-hydroxy-2,5,7,8-tetramethylchroman-2-carboxylic acid solution (stored at −20° C. for ˜1 year), a freshly prepared 6-hydroxy-2,5,7,8-tetramethylchroman-2-carboxylic acid solution (prepared according to manufacturer's instructions), and fresh preparations treated with various UV exposure regimes were compared. The results are plotted as autocorrelation curves in FIG. 9, and the amplitude of the “hump” at around one microsecond (0.001 millisecond (ms)) to a few microseconds indicates the triplet fraction of the dye, so the smaller the amplitude, the better the triplet quencher. […] The aged solution was the second best performer with an autocorrelation amplitude of ˜0.07 at a lag time of 0.001 ms.
The effectiveness of the photomodified solutions and the purified Fraction A and Fraction B as triplet-state quenchers/radical scavengers was tested by fluorescence correlation spectroscopy (FCS) using Alexa568 in low oxygen, as described above in Example 1. Two different intensity of excitation settings, 0.2 mW and 0.4 mW, were used for power dependence.

polymerase = test: Sequencing-by-incorporation readlength; format: biochemical; conditions: for readlengths compared with 6-hydroxy-2,5,7,8-tetramethylchroman-2-carboxylic acid / no PIDMA: single-molecule, real-time sequencing reactions, FIG. 17; for sequencing readlength: purified fractions, Example 7
Description: In yet another aspect, the present invention is directed to illuminated reactions for single molecule analysis, including sequencing of nucleic acids by observing incorporation of nucleotides into a nascent nucleic acid sequence during template-directed polymerase-based synthesis. Such methods, generally referred to as “sequencing-by-incorporation,” involve the observation of the addition of nucleotides or nucleotide analogs in a template-dependent fashion in order to determine the sequence of the template strand. See, e.g., U.S. Pat. Nos. 6,780,591, 7,037,687, 7,344,865, 7,302,146, and Eid, et al. (2009) Science 323:133-138, all of which are incorporated herein by reference in their entireties for all purposes. Processes for performing this detection include the use of fluorescently labeled nucleotide analogs within a confined observation region, e.g., within a nanoscale well and/or tethered, either directly or indirectly to a surface, By using excitation illumination (i.e., illumination of an appropriate wavelength to excite the fluorescent label and induce a detectable signal), the fluorescently labeled bases can be detected as they are incorporated into the nascent strand, thus identifying the nature of the incorporated base, and as a result, the complementary base in the template strand.
One particularly preferred aspect of the invention is in conjunction with the sequencing by incorporation of nucleic acids within an optical confinement, such as a zero mode waveguide, Such reactions involve observation of an extremely small reaction volume in which one or only a few polymerase enzymes and their fluorescent substrates may be present. Zero mode waveguides, and their use in sequencing applications are generally described in U.S. Pat. Nos. 6,917,726 and 7,033,764, and preferred methods of sequencing by incorporation are generally described in Published U.S. Patent Application No. 2003-0044781, the full disclosures of which are incorporated herein by reference in their entireties for all purposes, and in particular for their teachings regarding such sequencing applications and methods. Briefly, arrays of zero mode waveguides (“ZMWs”), configured in accordance with the present invention may be employed as optical confinements for single molecule analytical reactions, e.g., for nucleic acid (e.g., DNA, RNA) sequence determination. In particular, as noted above, these ZMWs provide extremely small observation volumes at or near the transparent substrate surface, also termed the “base” of the ZMW. A nucleic acid synthesis complex, e.g., template sequence, polymerase, and primer, which is immobilized at the base of the ZMW, may then be specifically observed during synthesis to monitor incorporation of nucleotides in a template dependent fashion, and thus provide the identity and sequences of nucleotides in the template strand. This identification is typically accomplished by providing detectable label groups, such as fluorescent labeling molecules, on the nucleotides. In some instances, the labeled nucleotides terminate primer extension, allowing a “one base at a time” interrogation of the complex. If, upon exposure to a given labeled base, a base is incorporated, its representative fluorescent signal may be detected at the base of the ZMW. If no signal is detected, then the base was not incorporated and the complex is interrogated with each of the other bases, in turn. Once a base is incorporated, the labeling group is removed, e.g., through the use of a photocleavable linking group, and where the label was not the terminating group, a terminator, upon the 3′ end of the incorporated nucleotide, may be removed prior to subsequent interrogation.
Experiments were performed to test the performance of pure 6-hydroxy-2,5,7,8-tetramethylchroman-2-carboxylic acid against various mixtures of 6-hydroxy-2,5,7,8-tetramethylchroman-2-carboxylic acid and derivatives thereof. […]

[2] = Saturation point of solutions for photomodification; format: physicochemical; conditions: solutions subjected to photomodification
Method: Of course, the amount of time for UV irradiation and room light exposure can be adjusted, as can the concentration of the 6-hydroxy-2,5,7,8-tetramethylchroman-2-carboxylic acid solution to be treated. For example, one to twenty-four hours of UV irradiation have been employed, as have 18 to 36 hours room light exposure. In general, and as shown in FIG. 9 described above, increasing UV exposures increase the ability of the mixture to effectively mitigate photo-induced damage, although there was no significant difference between the three, six, and 24 hour exposures (FIG. 9). Further, the solutions of 6-hydroxy-2,5,7,8-tetramethylchroman-2-carboxylic acid subjected to photomodification were typically of a concentration of 95-100 mM, which is near the saturation point for the compound. However, treatment of more or less concentrated solutions in contemplated and known chemical methods may be employed to increase the solubility of the compound prior to treatment.

[3] = Photolysis of Fraction A to Fraction B under UV, followed by reverse phase HPLC; format: physicochemical
Method: Fraction A was further converted to Fraction B by photolysis in a separate experiment. Specifically, purified Fraction A (reverse phase HPLC peak migration time of 9.791 minutes; FIG. 12A) was subjected to UV irradiation in water for one hour to produce Fraction B (reverse phase HPLC peak migration time of 14.891 minutes; FIG. 12B).

[4] = Brightness of Alexa A-647 dye; conditions: purified fractions
[5] = Example 3, FIG. 11A, 0.2 mW intensity of excitation
[6] = Example 3, FIG. 11B, 0.4 mW intensity of excitation

| SMILES | readlengths compared with 6-hydroxy-2,5,7,8-tetramethylchroman-2-carboxylic acid / no PIDMA (polymerase) | autocorrelation amplitude at a lag time of 0.001 ms [1, 5] | autocorrelation amplitude at a lag time of 0.001 ms [1, 6] | sequencing readlength (polymerase) | brightness of Alexa A-647 dye [4] | also measured |
| --- | --- | --- | --- | --- | --- | --- |
| Cc1c(C)c2c(c(C)c1O)CCC(C)(C(=O)O)O2 (single isomer, unassigned) [6-hydroxy-2,5,7,8-tetramethylchroman-2-carboxylic acid, reference compound] | surprisingly similar to having no PIDMA present at all | – | – | – | – | autocorrelation amplitude at a lag time of 0.001 ms ([1]; Example 1, FIG. 9, 532 nm, 0.4 mW, smaller amplitude = better triplet quencher): ~0.2; proportion of sequencing reactions that attained a readlength of at least one-fifth the maximum (polymerase; 0.5 mM, FIG. 13): about 10%; proportion of sequencing reactions that attained a readlength of at least one-tenth of the maximum readlength (polymerase; 0.5 mM, FIG. 13): 60%; sequencing reactions that attained a readlength of at least 30% of the maximum (polymerase; 0.5 mM, FIG. 13): very few; concentration near the saturation point [2]: 95000 to 100000 µM |
| CC1=C(C)C(=O)C(CCC(C)(O)C(=O)O)=C(C)C1=O (single isomer, unassigned) [Fraction A, 2-hydroxy-2-methyl-4-(2,4,5-trimethyl-3,6-dioxocyclohexa-1,4-dienyl)butanoic acid] | to a lesser extent | ~0.065 | ~0.043 | – | – | readlength compared with fresh 6-hydroxy-2,5,7,8-tetramethylchroman-2-carboxylic acid (polymerase; 0.05 mM purified Fraction A with 0.5 mM 6-hydroxy-2,5,7,8-tetramethylchroman-2-carboxylic acid, FIG. 13): much longer readlengths; readlength compared with fresh 6-hydroxy-2,5,7,8-tetramethylchroman-2-carboxylic acid (polymerase; 0.10 mM purified Fraction A with 0.5 mM 6-hydroxy-2,5,7,8-tetramethylchroman-2-carboxylic acid, FIG. 13): much longer readlengths; readlength compared with fresh 6-hydroxy-2,5,7,8-tetramethylchroman-2-carboxylic acid (polymerase; 0.25 mM purified Fraction A with 0.5 mM 6-hydroxy-2,5,7,8-tetramethylchroman-2-carboxylic acid, FIG. 13): much longer readlengths; conversion from Fraction A to Fraction B ([3]; UV irradiation in water for one hour): 80%; time until conversion is essentially complete ([3]; under a portable UV lamp): about four; half-life ([3]; water under UV irradiation, UV irradiation in water, read-out: half-life of conversion to Fraction B): 26 min |
| CC(=O)CCC1=C(C)C(=O)C(C)=C(C)C1=O (single isomer, unassigned) [Fraction B, 2,3,5-trimethyl-6-(3-oxobutyl)-1,4-benzoquinone] | – | ~0.06 | ~0.04 | – | – | – |
| CC1=C(C)C(=O)C2(CCC(C)(C(=O)O)O2)C(C)(O)C1=O (single isomer, unassigned) [fraction 5, 10-hydroxy-2,7,8,10-tetramethyl-6,9-dioxo-1-oxaspiro[4.5]dec-7-ene-2-carboxylic acid] | longer readlengths | – | – | significantly increase sequencing readlength | increase the brightness | – |
| CC1=C(C)C(=O)C2(CCC(C)(C(=O)O)O2)C(C)(O)C1=O (single isomer, unassigned) [fraction 7, 10-hydroxy-2,7,8,10-tetramethyl-6,9-dioxo-1-oxaspiro[4.5]dec-7-ene-2-carboxylic acid] | longer readlengths | – | – | significantly increase sequencing readlength | increase the brightness | – |
